Source: patent US20250009777A1 (priority 2021, published 2025)
Like-named read-outs stand apart in the source and are kept apart here.

Experiments:
SARS-CoV-2 Wuhan strain = assay: Antiviral activity against SARS-CoV-2 Wuhan strain, same manner as Example 1; assay type: cell-based; conditions: for SI: CC50 relative to EC50
[1] = Cytotoxicity (CC50) of structural analogs, Table 4; assay type: cell-based; conditions: cell line not stated
Experimental: Measurement of the antiviral activity was conducted in the same manner as Example 1. […] Among these compounds, compounds (A2), (A4) and (A6) had satisfactory differences in the ECso and CCso concentration levels, indicating particular promise as antiviral agents.

YFV = assay: microbe, parasite or virus in culture; assay type: cell-based; conditions: Yellow fever virus, BHK-21, 72 h
HCoV-OC43 = assay: microbe, parasite or virus in culture; assay type: cell-based, Human Coronavirus; conditions: Betacoronavirus 1, OC43, MRC5
DENV2 [2] = assay: microbe, parasite or virus in culture; assay type: cell-based; conditions: Dengue virus, DENV2, BHK-21, 96 h
DENV1 = assay: microbe, parasite or virus in culture; assay type: cell-based; conditions: Dengue virus, DENV1, BHK-21, 120 h
DENV4 = assay: microbe, parasite or virus in culture; assay type: cell-based; conditions: Dengue virus, DENV4, BHK-21, 120 h
HCoV-229E = assay: microbe, parasite or virus in culture; assay type: cell-based; conditions: Human coronavirus 229E, MRC5
[3] = test system: AG129 mouse-adapted DENV2; assay type: in vivo, mice; conditions: for Survival rate: death = bodyweight below 70%; for day post virus infection until which all of the mice survived: death = bodyweight below 80% of initial, FIG. 2A
ZIKV = assay: microbe, parasite or virus in culture; assay type: cell-based; conditions: Zika virus, BHK-21, 72 h
DENV3 = assay: microbe, parasite or virus in culture; assay type: cell-based; conditions: Dengue virus, DENV3, BHK-21, 120 h
WNV = assay: microbe, parasite or virus in culture; assay type: cell-based; conditions: West Nile virus, BHK-21, 72 h
in vitro [4] = conditions: Syrian hamster
[5] = test system: coronaviruses, flaviviruses and togaviruses; assay type: cell-based
DENV2 [6] = assay: Library screening for inhibition of cell death of flavivirus-infected cells; assay type: cell-based, dengue virus; conditions: compound library screening
Experimental: Using the compounds of a compound library based on nucleic acid compounds held by the Center for Research and Education on Drug Discovery, Hokkaido University, National University Corporation as test samples, screening was conducted for compounds having an effect in inhibiting cell death of cells infected with a flavivirus. DENV2 was used as the flavivirus.

CHIKV = assay: microbe, parasite or virus in culture; assay type: cell-based; conditions: Chikungunya virus, BHK-21
JEV = assay: microbe, parasite or virus in culture; assay type: cell-based; conditions: Japanese encephalitis virus, BHK-21, 72 h
in vitro [7] = conditions: human
[8] = Severe acute respiratory syndrome coronavirus 2

For “2′,3′-O-isopropylidene-5′-O-isobutyryl-2-thiouridine [Compound A6]”, the EC50 (SARS-CoV-2 Wuhan strain) was 3.93 µM, the SI (SARS-CoV-2 Wuhan strain) was 4.9 and the CC50 [1] was 19.4 µM.

In the case of “2′,3′-O-isopropylidene-5′-O-propynyl-2-thiouridine [Compound A5]”, the EC50 (SARS-CoV-2 Wuhan strain) is reported as 7.56 µM, the SI (SARS-CoV-2 Wuhan strain) is reported as 1.6 and the CC50 [1] is reported as 11.9 µM.

`O=c1ccn([C@@H]2O[C@H](CO)[C@@H](O)[C@H]2O)c(=S)[nH]1` [2-thiouridine] showed an EC50 (YFV) of 2900 nM, an EC50 (HCoV-OC43) of 13 µM and an EC50 (DENV2 [2]) of 1500 nM. The EC50 (DENV1) was 2400 nM, the EC50 (DENV4) was 1700 nM and the EC50 (HCoV-229E) was 770 nM. For the same compound, the “survival rate for the virus-infected mice” value ([3]; 50 mg/kg (n=8) and 150 mg/kg (n=9) groups compared with vehicle, in words) was “increased in a dosage-dependent manner”, the Survival rate ([3]; 50 mg/kg oral twice per day, n = 8, day 0 post infection) was 100% and the Survival rate ([3]; 50 mg/kg oral twice per day, n = 8, day 1 post infection) was 100%. The Survival rate ([3]; 50 mg/kg oral twice per day, n = 8, day 2 post infection) was 100%, the Survival rate ([3]; 50 mg/kg oral twice per day, n = 8, day 3 post infection) was 100% and the Survival rate ([3]; 50 mg/kg oral twice per day, n = 8, day 4 post infection) was 100%. The Survival rate ([3]; 50 mg/kg oral twice per day, n = 8, day 5 post infection) was 100%, the Survival rate ([3]; 50 mg/kg oral twice per day, n = 8, day 6 post infection) was 100% and the Survival rate ([3]; 50 mg/kg oral twice per day, n = 8, day 7 post infection) was 100%. It also gave a Survival rate ([3]; 50 mg/kg oral twice per day, n = 8, day 8 post infection) of 100%, a Survival rate ([3]; 50 mg/kg oral twice per day, n = 8, day 9 post infection) of 100% and a Survival rate ([3]; 50 mg/kg oral twice per day, n = 8, day 10 post infection) of 100%. For the same compound, the Survival rate ([3]; 50 mg/kg oral twice per day, n = 8, day 11 post infection) was 75%, the Survival rate ([3]; 50 mg/kg oral twice per day, n = 8, day 12 post infection) was 50% and the Survival rate ([3]; 50 mg/kg oral twice per day, n = 8, day 13 post infection) was 37.5%. The Survival rate ([3]; 50 mg/kg oral twice per day, n = 8, day 14 post infection) was 37.5%, the Survival rate ([3]; 50 mg/kg oral twice per day, n = 8, day 15 post infection) was 0% and the “day post virus infection until which all of the mice survived” value ([3]; 50 mg/kg orally twice per day for 5 days, n=3) was 12 days. For the same compound, the Survival rate ([3]; 150 mg/kg oral twice per day, n = 9, day 0 post infection) was 100%, the Survival rate ([3]; 150 mg/kg oral twice per day, n = 9, day 1 post infection) was 100% and the Survival rate ([3]; 150 mg/kg oral twice per day, n = 9, day 2 post infection) was 100%. The Survival rate ([3]; 150 mg/kg oral twice per day, n = 9, day 3 post infection) was 100%, the Survival rate ([3]; 150 mg/kg oral twice per day, n = 9, day 4 post infection) was 100% and the Survival rate ([3]; 150 mg/kg oral twice per day, n = 9, day 5 post infection) was 100%. For the same compound, the Survival rate ([3]; 150 mg/kg oral twice per day, n = 9, day 6 post infection) was 100%, the Survival rate ([3]; 150 mg/kg oral twice per day, n = 9, day 7 post infection) was 100% and the Survival rate ([3]; 150 mg/kg oral twice per day, n = 9, day 8 post infection) was 100%. For the same compound, the Survival rate ([3]; 150 mg/kg oral twice per day, n = 9, day 9 post infection) was 100%, the Survival rate ([3]; 150 mg/kg oral twice per day, n = 9, day 10 post infection) was 100% and the Survival rate ([3]; 150 mg/kg oral twice per day, n = 9, day 11 post infection) was 88.89%. The Survival rate ([3]; 150 mg/kg oral twice per day, n = 9, day 12 post infection) was 88.89%, the Survival rate ([3]; 150 mg/kg oral twice per day, n = 9, day 13 post infection) was 66.67% and the Survival rate ([3]; 150 mg/kg oral twice per day, n = 9, day 14 post infection) was 66.67%. The Survival rate ([3]; 150 mg/kg oral twice per day, n = 9, day 15 post infection) was 66.67%, the Survival rate ([3]; 150 mg/kg oral twice per day, n = 9, day 16 post infection) was 66.67% and the “day post virus infection until which all of the mice survived” value ([3]; 150 mg/kg orally twice per day for 5 days, n=4) was 15 days. It also gave an EC50 (ZIKV) of 5 µM, an EC50 (DENV3) of 2000 nM and an EC50 (WNV) of 5.3 µM. The CC50 (in vitro [4]) was greater than 50 µM, the “relative viral RNA level” value [5] was “decreased” and the “antiviral activity (inhibiting cell death of infected cells)” value (DENV2 [6]) was “exhibited antiviral activity”. The EC50 (CHIKV) was 8.2 µM, the EC50 (JEV) was 4.8 µM and the CC50 (in vitro [7]) was greater than 50 µM.

With `O=c1ccn([C@@H]2O[C@H](CO)[C@@H](O)[C@H]2O)c(=[Se])[nH]1` [Compound A2, 2-selenouridine] the SI (SARS-CoV-2 Wuhan strain) was greater than 2.7, the EC50 (SARS-CoV-2 Wuhan strain; [8]) was 7.37 µM and the CC50 [1] was greater than 20 µM.

For `CSc1nc(=O)ccn1C1O[C@H](CO)[C@@H](O)[C@H]1O` (stereo partly drawn) [Compound A3], the SI (SARS-CoV-2 Wuhan strain) was 1.2, the EC50 (SARS-CoV-2 Wuhan strain; [8]) was 4.67 µM and the CC50 [1] was 5.48 µM.

`O=c1ccn(C2O[C@H](CO)[C@@H](O)[C@H]2O)c(=NO)[nH]1` (stereo partly drawn) [Compound A4] gave an SI (SARS-CoV-2 Wuhan strain) of 7.5, an EC50 (SARS-CoV-2 Wuhan strain; [8]) of 0.81 µM and a CC50 [1] of 6.04 µM.
